Assay results published in patent US20260356856A1, “KRAS G12S AND G12C INHIBITORS” (MIRATI THERAPEUTICS, INC., priority 2023, published 2026).

Tests used:
[1] = target: T1, KRas-mediated phosphorylation of ERK in H358 cells (Homo sapiens, UniProt P01116, G12C); assay: Inhibition of KRas-mediated phosphorylation of ERK (HTRF), H358 cells; format: cell-based; conditions: HTRF pERK, 3 h incubation
T1 construct: pERK HTRF read-out

[2] = target: T2, KRas-mediated phosphorylation of ERK in MKN1 cells (Homo sapiens, UniProt P01116); assay: Inhibition of KRas-mediated phosphorylation of ERK (HTRF), MKN1 cells; format: cell-based; conditions: MKN1 cells (KRas WT); HTRF pERK; 3 h incubation
T2 construct: pERK HTRF read-out
T2 sequence (P01116 1-188 isoform P01116-2): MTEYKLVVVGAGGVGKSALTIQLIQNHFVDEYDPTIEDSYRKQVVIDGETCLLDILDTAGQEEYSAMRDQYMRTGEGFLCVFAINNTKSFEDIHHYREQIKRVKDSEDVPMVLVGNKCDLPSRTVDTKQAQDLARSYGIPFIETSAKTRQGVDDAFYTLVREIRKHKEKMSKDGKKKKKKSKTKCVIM
Procedure: Inhibition of KRas Phosphorylation of ERK (HTRF) by Exemplary Compounds of Formula (Ia) or (Ib)
Cisbio HTRF Advanced pERK Assay Catalog #64AERPEH • Cells: MKN1, PSN1 • Procedure: • 1. Day 1: Seed 6,000 cells/well −25 μl/well in 384-well white solid bottom plate; RPM1_10% FBS. Incubate overnight at 37 °C/5% CO2. • 2.

[3] = target: T3, KRas-mediated phosphorylation of ERK in A549 cells (Homo sapiens, UniProt P01116, G12S); assay: Inhibition of KRas-mediated phosphorylation of ERK (HTRF), A549 cells; format: cell-based; conditions: HTRF pERK, 3 h incubation
T3 construct: pERK HTRF read-out
T3 sequence (P01116 1-188 isoform P01116-2 G12S): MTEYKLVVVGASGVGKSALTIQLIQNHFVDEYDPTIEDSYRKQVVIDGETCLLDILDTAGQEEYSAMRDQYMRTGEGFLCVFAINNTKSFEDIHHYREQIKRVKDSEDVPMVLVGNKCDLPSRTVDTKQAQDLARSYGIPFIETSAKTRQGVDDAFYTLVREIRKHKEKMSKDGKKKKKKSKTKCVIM

KRas G12C = target: T4, KRas G12C (Homo sapiens, UniProt P01116, G12C); assay: KRas binding assay, TR-FRET displacement of Cy5 labelled tracer; conditions: 60-minute incubation at room temperature, 1% DMSO, pH 7.5
T4 construct: Biotinylated KRas (corresponding to amino acids 1-169, produced at Accelegan Inc.); biotin (biotinylated); purchased Accelegan Inc
T4 sequence (P01116 1-169 isoform P01116-2 G12C): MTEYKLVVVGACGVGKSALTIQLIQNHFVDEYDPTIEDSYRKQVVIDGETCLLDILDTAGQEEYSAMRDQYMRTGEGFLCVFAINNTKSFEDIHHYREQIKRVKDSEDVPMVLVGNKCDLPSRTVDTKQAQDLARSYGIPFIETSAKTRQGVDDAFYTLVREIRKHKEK
In short: (§1)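 TR-FRET tracer-displacement readout after 60 min at room temperature, using KRas residues 1-169 (biotinylated) with terbium streptavidin and a Cy5 tracer. Buffer: 50 mM HEPES pH 7.5, 5 mM MgCl2, 0.005% Tween-20, 1 mM DTT, 1% DMSO final. IC50 from 4-parameter fit of POC data.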

KRas WT = target: T5, KRas WT (Homo sapiens, UniProt P01116); assay: as above; conditions: 60-minute incubation at room temperature, 1% DMSO, pH 7.5
T5 construct: Biotinylated KRas (corresponding to amino acids 1-169, produced at Accelegan Inc.); biotin (biotinylated); purchased Accelegan Inc
T5 sequence (P01116 1-169 isoform P01116-2): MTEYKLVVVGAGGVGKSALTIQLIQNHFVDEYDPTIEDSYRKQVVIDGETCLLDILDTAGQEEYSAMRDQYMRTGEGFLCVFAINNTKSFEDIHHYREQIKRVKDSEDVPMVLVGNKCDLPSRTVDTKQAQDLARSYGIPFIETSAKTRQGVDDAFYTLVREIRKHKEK
In short: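 KRas aa 1-169, biotinylated; Tb-streptavidin donor; 1% DMSO final. Buffer: HEPES 50 mM (pH 7.5), MgCl2 5 mM, DTT 1 mM, Tween-20 0.005%. 60 min, RT. IC50 from 4-parameter fit of POC.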

KRas G12S = target: T6, KRas G12S (Homo sapiens, UniProt P01116, G12S); assay: as above; conditions: 60-minute incubation at room temperature, 1% DMSO, pH 7.5
T6 construct: Biotinylated KRas (corresponding to amino acids 1-169, produced at Accelegan Inc.); biotin (biotinylated); purchased Accelegan Inc
T6 sequence (P01116 1-169 isoform P01116-2 G12S): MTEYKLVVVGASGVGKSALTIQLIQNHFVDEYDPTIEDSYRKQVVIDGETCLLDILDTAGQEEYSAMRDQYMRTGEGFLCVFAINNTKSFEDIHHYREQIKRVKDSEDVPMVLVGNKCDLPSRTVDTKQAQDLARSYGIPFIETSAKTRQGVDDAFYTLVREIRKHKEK
In short: as §1

T1 sequence (P01116 1-188 isoform P01116-2 G12C): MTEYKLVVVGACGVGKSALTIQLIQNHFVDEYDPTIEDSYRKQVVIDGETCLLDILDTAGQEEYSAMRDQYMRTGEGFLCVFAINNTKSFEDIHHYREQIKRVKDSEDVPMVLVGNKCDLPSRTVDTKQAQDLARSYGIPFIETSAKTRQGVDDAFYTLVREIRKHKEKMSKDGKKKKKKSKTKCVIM

IC50 [1] | IC50 [2] | IC50 [3] | IC50 (KRas G12C) | IC50 (KRas WT) | IC50 (KRas G12S) | Structure (SMILES)
296 nM | 61 nM | 677 nM | 21 nM | 12 nM | 24 nM | N#Cc1c(N)sc2c(F)ccc(-c3c(Cl)cc4c(N5CCC(C(=O)N6C7CCC6COC7)CC5)nc(OC[C@@]56CCCN5C[C@H](F)C6)nc4c3F)c12 [Example 247, 4-(4-(4-(3-oxa-8-azabicyclo[3.2.1]octane-8-carbonyl)piperidin-1-yl)-6-chloro-8-fluoro-2-(((2R,7aS)-2-fluorotetrahydro-1H-pyrrolizin-7a(5H)-yl)methoxy)quinazolin-7-yl)-2-amino-7-fluorobenzo[b]thiophene-3-carbonitrile]
167 nM | 24 nM | 223 nM | 13 nM | 8 nM | 14 nM | N#Cc1c(N)sc2c(F)ccc(-c3c(Cl)cc4c(N5CCC(C(=O)N6CCCC6)CC5)nc(OC[C@@]56CCCN5C[C@H](F)C6)nc4c3F)c12 [Example 246, 2-amino-4-(6-chloro-8-fluoro-2-(((2R,7aS)-2-fluorotetrahydro-1H-pyrrolizin-7a(5H)-yl)methoxy)-4-(4-(pyrrolidine-1-carbonyl)piperidin-1-yl)quinazolin-7-yl)-7-fluorobenzo [b]thiophene-3-carbonitrile]
108 nM | 41 nM | 104 nM | 7 nM | 10 nM | 15 nM | CC(=O)N(C)C(=O)[C@H]1C[C@@H]2CN(c3nc(OC[C@@]45CCCN4C[C@H](F)C5)nc4c(F)c(-c5ccc(F)c6sc(N)c(C#N)c56)c(Cl)cc34)C[C@@H]2C1 (atropisomer, axis not shown; (aR)) [Example 236, (3aR,5S,6aS)-N-acetyl-2-((S)-7-(2-amino-3-cyano-7-fluorobenzo[b]thiophen-4-yl)-6-chloro-8-fluoro-2-(((2R,7aS)-2-fluorotetrahydro-1H-pyrrolizin-7a(5H)-yl)methoxy)quinazolin-4-yl)-N-methyloctahydrocyclopenta[c]pyrrole-5-carboxamide]
1200 nM | 404 nM | > 10000 nM | 19 nM | 25 nM | 17 nM | Cc1ccn(C(=O)C2CCCN(c3nc(OC[C@@]45CCCN4C[C@H](F)C5)nc4c(F)c(-c5ccc(F)c6sc(N)c(C#N)c56)c(Cl)cc34)C2)n1 (stereo partly drawn) [Example 132, 2-amino-4-(6-chloro-8-fluoro-2-(((2R,7aS)-2-fluorotetrahydro-1H-pyrrolizin-7a(5H)-yl)methoxy)-4-(3-(3-methyl-1H-pyrazole-1-carbonyl)piperidin-1-yl)quinazolin-7-yl)-7-fluorobenzo[b]thiophene-3-carbonitrile]
16 nM | 431 nM | 12 nM | 3 nM | 10 nM | 4 nM | CN(C)CCc1ccn(C(=O)C2CCCN(c3nc(OC[C@@]45CCCN4C[C@H](F)C5)nc4c(F)c(-c5ccc(F)c6sc(N)c(C#N)c56)c(Cl)cc34)CC2)n1 (stereo partly drawn) [Example 219, 2-amino-4-(6-chloro-4-(4-(3-(2-(dimethylamino)ethyl)-1H-pyrazole-1-carbonyl)azepan-1-yl)-8-fluoro-2-(((2R,7aS)-2-fluorotetrahydro-1H-pyrrolizin-7a(5H)-yl)methoxy)quinazolin-7-yl)-7-fluorobenzo[b]thiophene-3-carbonitrile]
69 nM | 70 nM | 17 nM | 18 nM | 15 nM | 6 nM | CC(=O)N(C)C(=O)[C@@H]1C[C@@H]2CN(c3nc(OC[C@@]45CCCN4C[C@H](F)C5)nc4c(F)c(-c5ccc(F)c6sc(N)c(C#N)c56)c(Cl)cc34)C[C@@H]2C1 [Example 237, (3aR,5R,6aS)-N-acetyl-2-((S)-7-(2-amino-3-cyano-7-fluorobenzo[b]thiophen-4-yl)-6-chloro-8-fluoro-2-(((2R,7aS)-2-fluorotetrahydro-1H-pyrrolizin-7a(5H)-yl)methoxy)quinazolin-4-yl)-N-methyloctahydrocyclopenta[c]pyrrole-5-carboxamide]
149 nM | 17 nM | 240 nM | 14 nM | 8 nM | 12 nM | CON(C)C(=O)C1CCN(c2nc(OC[C@@]34CCCN3C[C@H](F)C4)nc3c(F)c(-c4ccc(F)c5sc(N)c(C#N)c45)c(Cl)cc23)CC1 [Example 242, 1-(7-(2-amino-3-cyano-7-fluorobenzo[b]thiophen-4-yl)-6-chloro-8-fluoro-2-(((2R,7aS)-2-fluorotetrahydro-1H-pyrrolizin-7a(5H)-yl)methoxy)quinazolin-4-yl)-N-methoxy-N-methylpiperidine-4-carboxamide]
20 nM | 105 nM | 7 nM | 17 nM | 17 nM | 7 nM | Cc1ccn(C(=O)C2CCN(c3nc(OC[C@@]45CCCN4C[C@H](F)C5)nc4c(F)c(-c5ccc(F)c6sc(N)c(C#N)c56)c(Cl)cc34)CC2)n1 [Example 133, 2-amino-4-(6-chloro-8-fluoro-2-(((2R,7aS)-2-fluorotetrahydro-1H-pyrrolizin-7a(5H)-yl)methoxy)-4-(4-(3-methyl-1H-pyrazole-1-carbonyl)piperidin-1-yl)quinazolin-7-yl)-7-fluorobenzo[b]thiophene-3-carbonitrile]

Continued, compound first:

Structure (SMILES) | IC50 [1] | IC50 [2] | IC50 [3] | IC50 (KRas G12C) | IC50 (KRas WT) | IC50 (KRas G12S)
CCc1cc(O)cc2cccc(-c3c(Cl)cc4c(N5CCCC(C(=O)n6ccc(C)n6)CC5)nc(OC[C@@]56CCCN5C[C@H](F)C6)nc4c3F)c12 (stereo partly drawn) [Example 264, (1-(6-chloro-7-(8-ethyl-6-hydroxynaphthalen-1-yl)-8-fluoro-2-(((2R,7aS)-2-fluorotetrahydro-1H-pyrrolizin-7a(5H)-yl)methoxy)quinazolin-4-yl)azepan-4-yl)(3-methyl-1H-pyrazol-1-yl)methanone] | 847 nM | 3490 nM | 138 nM | 170 nM | 732 nM | 232 nM
CCc1c(F)ccc2cc(O)cc(-c3ncc4c(N5CCC(C(=O)n6ccc(OC)n6)CC5)nc(OC[C@@]56CCCN5C[C@H](F)C6)nc4c3F)c12 [Example 61, (1-(7-(8-ethyl-7-fluoro-3-hydroxynaphthalen-1-yl)-8-fluoro-2-(((2R,7aS)-2-fluorotetrahydro-1H-pyrrolizin-7a(5H)-yl)methoxy)pyrido[4,3-d]pyrimidin-4-yl)piperidin-4-yl)(3-methoxy-1H-pyrazol-1-yl)methanone] | 8570 nM | 2610 nM | 84 nM | 336 nM | 136 nM | 34 nM
CCc1c(F)ccc2cc(O)cc(-c3ncc4c(N5CCC(C(=O)N(C)S(C)(=O)=O)CC5)nc(OC[C@@]56CCCN5C[C@H](F)C6)nc4c3F)c12 [Example 257, 1-(7-(8-ethyl-7-fluoro-3-hydroxynaphthalen-1-yl)-8-fluoro-2-(((2R,7aS)-2-fluorotetrahydro-1H-pyrrolizin-7a(5H)-yl)methoxy)pyrido[4,3-d]pyrimidin-4-yl)-N-methyl-N-(methylsulfonyl)piperidine-4-carboxamide] | 21 nM | 726 nM | 677 nM | 5 nM | 214 nM | 499 nM
CCc1c(F)ccc2cc(O)cc(-c3ncc4c(N5CCN(C(=O)n6ccnc6)CC5)nc(OC[C@@]56CCCN5C[C@H](F)C6)nc4c3F)c12 [Example 150, (4-(7-(8-ethyl-7-fluoro-3-hydroxynaphthalen-1-yl)-8-fluoro-2-(((2R,7aS)-2-fluorotetrahydro-1H-pyrrolizin-7a(5H)-yl)methoxy)pyrido[4,3-d]pyrimidin-4-yl)piperazin-1-yl)(1H-imidazol-1-yl)methanone] | 39 nM | 40 nM | 1580 nM | 5 nM | 2 nM | 3 nM
CCc1c(F)ccc2cc(O)cc(-c3ncc4c(N5CCC(C(=O)n6cc(OC)cn6)CC5)nc(OC[C@@]56CCCN5C[C@H](F)C6)nc4c3F)c12 [Example 294, (1-(7-(8-ethyl-7-fluoro-3-hydroxynaphthalen-1-yl)-8-fluoro-2-(((2R,7aS)-2-fluorotetrahydro-1H-pyrrolizin-7a(5H)-yl)methoxy)pyrido[4,3-d]pyrimidin-4-yl)piperidin-4-yl)(4-methoxy-1H-pyrazol-1-yl)methanone] | 4490 nM | 3870 nM | 74 nM | 61 nM | 130 nM | 22 nM
CN(CCCC(=O)Oc1ccc(F)cc1)c1nc(OC[C@@]23CCCN2C[C@H](F)C3)nc2c(F)c(-c3ccc(F)c4sc(N)c(C#N)c34)c(Cl)cc12 [Example 270, 4-fluorophenyl 4-((7-(2-amino-3-cyano-7-fluorobenzo[b]thiophen-4-yl)-6-chloro-8-fluoro-2-(((2R,7aS)-2-fluorotetrahydro-1H-pyrrolizin-7a(5H)-yl)methoxy)quinazolin-4-yl)(methyl)amino)butanoate] | 77 nM | 340 nM | 462 nM | 4 nM | 74 nM | 22 nM
